# Measured values reported in patent US3989598A (priority 1962, dated 1976).
# Where a name gives a salt, the structure may show the parent alone.
# Legend:
# [1] = system: Staphylococcus aureus strain 1142 R; experiment: bacteriostatic activity, dilution method in nutritive broth; format: cell-based; settings: read-out: Minimal bacteriostatic concentration
# [2] = system: Staphylococcus aureus novobiocin resistant strain; experiment: as above; format: cell-based; settings: read-out: Minimal bacteriostatic concentration
# [3] = system: Staphylococcus aureus strain B3; experiment: as above; format: cell-based; settings: B3, read-out: Minimal bacteriostatic concentration
# [4] = system: Bacillus subtilis or Klebsiella pneumoniae; experiment: paper chromatography with bioautography on seeded agar plates; format: cell-based; settings: paper chromatogram
# Excerpt: The antibiotic is chromatographed on Arches No.302 paper impregnated with a pH 4.8 phosphate buffer, with n-butanol saturated with water, using descending development. The chromatogram is developed by bioautography on nutritive agar plates seeded with Bacillus subtilis or Klebsiella pneumoniae.
# [5] = system: Bacillus subtilis ATCC 6633; experiment: bacteriostatic activity, dilution method in nutritive broth; format: cell-based; settings: ATCC6633, read-out: Minimal bacteriostatic concentration
# [6] = system: Serratia marcescens (A. 476,Lausanne); experiment: as above; format: cell-based; settings: read-out: Minimal bacteriostatic concentration
# [7] = system: Lactobacillus casei - ATCC 7469; experiment: as above; format: cell-based; settings: Lacticaseibacillus casei, ATCC7469, read-out: Minimal bacteriostatic concentration
# [8] = system: Shigella dysenteriae (Shiga L. - Institut Pasteur); experiment: microbe, parasite or virus in culture; format: cell-based; settings: read-out: Minimal bacteriostatic concentration
# [9] = system: Streptococcus viridans (Institut Pasteur); experiment: bacteriostatic activity, dilution method in nutritive broth; format: cell-based; settings: read-out: Minimal bacteriostatic concentration
# [10] = system: Proteus vulgaris (Fac. Phie); experiment: as above; format: cell-based; settings: read-out: Minimal bacteriostatic concentration
# [11] = system: Micrococcus lysodeikticus; experiment: as above; format: cell-based; settings: Micrococcus luteus, read-out: Minimal bacteriostatic concentration
# Klebsiella pneumoniae = experiment: turbidimetric estimation of activity by comparison with a 9865 RP sample of known activity; format: cell-based; settings: unit = smallest quantity in 1 cc. of medium that inhibits growth of Klebsiella pneumoniae
# Excerpt: The following non-limitative Examples illustrate the invention. […] This activity is expressed in units (u) per mg. for solid products and in units per cc. for solution. (The unit is defined as the smallest quantity of product which, dissolved in 1 cc. of an appropriate medium, inhibits the growth of Klebsiella pneumoniae under the conditions in question).
# [12] = system: Staphylococcus aureus carbomycin resistant strain; experiment: bacteriostatic activity, dilution method in nutritive broth; format: cell-based; settings: read-out: Minimal bacteriostatic concentration
# [13] = clinical safety of daunorubicin: heart; format: in vivo; settings: human treatment
# blood-forming centers = experiment: clinical safety of daunorubicin: blood formation; format: in vivo; settings: human treatment
# [14] = system: Streptococcus faecalis ATCC 9790; experiment: bacteriostatic activity, dilution method in nutritive broth; format: cell-based; settings: Enterococcus faecalis, ATCC9790, read-out: Minimal bacteriostatic concentration
# [15] = system: Aerobacter aerogenes - ATCC 8308; experiment: as above; format: cell-based; settings: Klebsiella aerogenes, ATCC8308, read-out: Minimal bacteriostatic concentration
# [16] = system: Pasteurella multocida (A. 125 - Institut Pasteur); experiment: as above; format: cell-based; settings: read-out: Minimal bacteriostatic concentration
# [17] = system: Mycobacterium smegmatis - ATCC 607; experiment: as above; format: cell-based; settings: Mycolicibacterium smegmatis, ATCC607, read-out: Minimal bacteriostatic concentration
# [18] = system: Bacillus brevis ATCC 8185; experiment: as above; format: cell-based; settings: Brevibacillus brevis, ATCC8185, read-out: Minimal bacteriostatic concentration
# [19] = system: Mycobacterium para-smegmatis (A 75 - Lausanne); experiment: as above; format: cell-based; settings: read-out: Minimal bacteriostatic concentration
# [20] = system: Bacillus subtilis (strain 3 R 9575, Merck - ATCC 9524); experiment: as above; format: cell-based; settings: ATCC9524, read-out: Minimal bacteriostatic concentration
# [21] = system: Staphylococcus aureus strain 662 R; experiment: as above; format: cell-based; settings: read-out: Minimal bacteriostatic concentration
# [22] = system: Staphylococcus aureus erythromycin resistant strain; experiment: as above; format: cell-based; settings: read-out: Minimal bacteriostatic concentration
# [23] = system: Staphylococcus aureus strain Hb; experiment: as above; format: cell-based; settings: read-out: Minimal bacteriostatic concentration
# Proteus X 19 = experiment: as above; format: cell-based; settings: read-out: Minimal bacteriostatic concentration
# [24] = system: Bacillus lactis aerogenes (Fac. Phie); experiment: as above; format: cell-based; settings: read-out: Minimal bacteriostatic concentration
# [25] = acute toxicity in the mouse; settings: in vivo, sc
# lymphosarcoma = experiment: utility in treating certain tumours; format: in vivo, human
# [26] = system: Gaffkya tetragena (Fac.Phie); experiment: bacteriostatic activity, dilution method in nutritive broth; format: cell-based; settings: read-out: Minimal bacteriostatic concentration
# neuroblastoma = experiment: utility in treating certain tumours; format: in vivo, human
# Sarcina alba (Fac.Phie) = experiment: bacteriostatic activity, dilution method in nutritive broth; format: cell-based; settings: read-out: Minimal bacteriostatic concentration
# [27] = system: Salmonella typhimurium (Institut Pasteur); experiment: as above; format: cell-based; settings: Salmonella enterica, read-out: Minimal bacteriostatic concentration
# [28] = system: Corynebacterium pseudodiphtericum (Fac.Phie); experiment: as above; format: cell-based; settings: read-out: Minimal bacteriostatic concentration
# [29] = system: Neisseria catarrhalis (Fac.Phie); experiment: as above; format: cell-based; settings: read-out: Minimal bacteriostatic concentration
# solubility = format: physicochemical
# [30] = system: Staphylococcus aureus actinomycin resistant strain; experiment: bacteriostatic activity, dilution method in nutritive broth; format: cell-based; settings: read-out: Minimal bacteriostatic concentration
# [31] = system: Sarcina lutea - ATCC 9341; experiment: as above; format: cell-based; settings: Micrococcus luteus, ATCC9341, read-out: Minimal bacteriostatic concentration
# [32] = system: Streptococcus faecalis (Thiercelin's enterococcus Fac.Phie); experiment: as above; format: cell-based; settings: read-out: Minimal bacteriostatic concentration
# [33] = system: Salmonella paratyphi A (Lacasse, Institut Pasteur); experiment: as above; format: cell-based; settings: Salmonella enterica, read-out: Minimal bacteriostatic concentration
# [34] = system: Staphylococcus aureus streptogramin resistant strain; experiment: as above; format: cell-based; settings: read-out: Minimal bacteriostatic concentration
# [35] = system: Salmonella schottmuelleri (paratyphi B) (Fougenc, Institut Pasteur); experiment: as above; format: cell-based; settings: read-out: Minimal bacteriostatic concentration
# [36] = system: Diplococcus pneumoniae (strain Til. Institut Pasteur); experiment: as above; format: cell-based; settings: Streptococcus pneumoniae, read-out: Minimal bacteriostatic concentration
# [37] = system: Brucella bronchiseptica (CN 387 - Wellcome Institute); experiment: microbe, parasite or virus in culture; format: cell-based; settings: Bordetella bronchiseptica, read-out: Minimal bacteriostatic concentration
# [38] = system: Klebsiella pneumoniae - ATCC 10,031; experiment: bacteriostatic activity, dilution method in nutritive broth; format: cell-based; settings: ATCC10, read-out: Minimal bacteriostatic concentration
# [39] = system: Escherichia coli - ATCC 9637; experiment: as above; format: cell-based; settings: ATCC9637, read-out: Minimal bacteriostatic concentration
# Excerpt: For each organism, the lowest concentration of substance has been determined which, under the defined condition, prevents all visible development in an appropriate nutritive broth. The results of various determinations are shown in Table VI, wherein the minimal bacteriostatic concentrations are expressed as micrograms of substance per cubic centimeter of experimental medium.
# [40] = system: Bacillus cereus ATCC 6630; experiment: as above; format: cell-based; settings: ATCC6630, read-out: Minimal bacteriostatic concentration
# Bacillus mycoides = experiment: as above; format: cell-based; settings: read-out: Minimal bacteriostatic concentration
# [41] = system: Pseudomonas aeruginosa (Bass strain - Institut Pasteur); experiment: as above; format: cell-based; settings: read-out: Minimal bacteriostatic concentration
# [42] = system: Alcaligenes faecalis - ATCC 8749; experiment: as above; format: cell-based; settings: ATCC8749, read-out: Minimal bacteriostatic concentration
# nephroblastoma = experiment: utility in treating certain tumours; format: in vivo, human
# [43] = system: Staphylococcus aureus strain Launoy 2; experiment: bacteriostatic activity, dilution method in nutritive broth; format: cell-based; settings: LAUNOY2, strain Launoy 2 (tetracycline, streptomycin and penicillin resistant), read-out: Minimal bacteriostatic concentration
# [44] = system: Bacillus megatherium (NRRL B 1125); experiment: as above; format: cell-based; settings: read-out: Minimal bacteriostatic concentration
# [45] = system: Bacillus subtilis (strain ZO 5 A, Fac. Phie); experiment: as above; format: cell-based; settings: read-out: Minimal bacteriostatic concentration
# [46] = system: Staphylococcus aureus strain Launoy 1; experiment: as above; format: cell-based; settings: LAUNOY1, strain Launoy 1 (tetracycline, streptomycin, chloramphenicol and penicillin resistant), read-out: Minimal bacteriostatic concentration
# [47] = system: acute myeloblastic leukemia; experiment: utility in treating certain tumours; format: in vivo, human
# [48] = clinical dosage in acute leukaemias: maximum safe dose; settings: human, in vivo, iv, overall dosage of initial treatment, calculated per kg weight
# Protocol: Treatment of acute leukaemias must be intensive and of short duration; depending on the case, it comprises one or more courses. In the lymphoblstic forms of leukaemia, the actual trend is to administer a daily dose of 1 mg/kg body weight of two to eight consecutive days, and to cease injections when the leucopenia reaches 1,000 to 1,500 units per cc. It will be recalled that characteristic changes in the medullary cytology fcilitate the conducting of the treatment and help in its adaptation to each particular case. […] It is, moreover, at the end of the aplastic phase, when the number of leucocytes is rising again, that adjustement of the theraputic dose is difficult. When, the day after medication was stopped the leucopenia worsens and the medullary blasts change, it is required to wait for regeneration of the blood before proceeding with a bone marrow test. If the lqucopenia is not accentuated and the medullary cytology remains high with persistence of blastic cells, a second course is undertaken. […] The overall dosage corresponding to the group of courses making up the initial treatment, such as has just been defined, is far from being uniform; calculated per kg weight, it sometimes reaches 20 mg, a dose of around 25 mg being considered the maximum safe dose. […]
# [49] = system: Mycobacterium phlei (Bacteriological Institute of Lyon); experiment: bacteriostatic activity, dilution method in nutritive broth; format: cell-based; settings: Mycolicibacterium phlei, read-out: Minimal bacteriostatic concentration
# [50] = system: Staphylococcus aureus strain 3486 R; experiment: as above; format: cell-based; settings: read-out: Minimal bacteriostatic concentration
# [51] = system: acute lymphoblastic leukemia; experiment: utility in treating certain tumours; format: in vivo, human
# [52] = system: Streptococcus pyogenes Hemolyticus (strain Dig 7, Instut Pasteur); experiment: bacteriostatic activity, dilution method in nutritive broth; format: cell-based; settings: read-out: Minimal bacteriostatic concentration
# [53] = subacute toxicity in the mouse (one dose per day for 5 days); settings: in vivo
smiles,measurement,setting,value
"COc1cccc2c1C(=O)c1c(O)c3c(c(O)c1C2=O)C[C@@](O)(C(C)=O)C[C@@H]3O[C@H]1C[C@H](N)[C@H](O)[C@H](C)O1 [13057 RP daunorubicin, daunorubicin]",MIC,[1],2.1 µg/mL
same,MIC,[2],3.9 µg/mL
same,MIC,[3],5.2 µg/mL
same,active substance by bioautography,[4],active
same,MIC,[5],1.2 µg/mL
same,MIC,[6],120 µg/mL
same,MIC,[7],1.2 µg/mL
same,MIC,[8],2000 µg/mL
same,MIC,[9],43 µg/mL
same,MIC,[10],> 2000 µg/mL
same,MIC,[11],2.5 µg/mL
same,activity,Klebsiella pneumoniae,160 μ/mg.
same,MIC,[12],5.3 µg/mL
same,cardiac complications,[13],sometimes accompanied by cardiac complications
same,action on the blood-forming centers,blood-forming centers,depressant action
same,MIC,[14],30 µg/mL
same,MIC,[15],1000 µg/mL
same,MIC,[16],1.8 µg/mL
same,MIC,[17],1.2 µg/mL
same,MIC,[18],1.4 µg/mL
same,MIC,[19],2.2 µg/mL
same,MIC,[20],1.8 µg/mL
same,MIC,[21],6.3 µg/mL
same,MIC,[22],3.8 µg/mL
same,MIC,[23],5.3 µg/mL
same,MIC,Proteus X 19,62 µg/mL
same,MIC,[24],120 µg/mL
same,LD50,[25],47 mg/kg
same,utility in treating tumours,lymphosarcoma,proved to be of utility
same,MIC,[26],6.7 µg/mL
same,utility in treating tumours,neuroblastoma,proved to be of utility
same,MIC,Sarcina alba (Fac.Phie),3.3 µg/mL
same,MIC,[27],1000 µg/mL
same,MIC,[28],1.7 µg/mL
same,MIC,[29],2.2 µg/mL
same,solubility in alcohols,solubility; alcohols,soluble
same,solubility in benzene,solubility; benzene,practically insoluble
same,solubility in chloroform,solubility,soluble
same,solubility in diethyl ether,solubility; diethyl ether,practically insoluble
same,solubility in ketones,solubility; ketones,very slighly soluble
same,solubility in water,solubility,very slighly soluble
same,MIC,[30],5.8 µg/mL
same,MIC,[31],1.2 µg/mL
same,MIC,[32],19 µg/mL
same,MIC,[33],16 µg/mL
same,MIC,[34],1.9 µg/mL
same,MIC,[35],1000 µg/mL
same,MIC,[36],0.89 µg/mL
same,MIC,[37],62 µg/mL
same,MIC,[38],8.9 µg/mL
same,MIC,[39],500 µg/mL
same,MIC,[40],2.2 µg/mL
same,MIC,Bacillus mycoides,1.8 µg/mL
same,MIC,[41],1000 µg/mL
same,MIC,[42],1.8 µg/mL
same,utility in treating tumours,nephroblastoma,proved to be of utility
same,MIC,[43],4.8 µg/mL
same,MIC,[44],1.3 µg/mL
same,MIC,[45],1.5 µg/mL
same,MIC,[46],7.1 µg/mL
same,utility in treating tumours,[47],proved to be of utility
same,MTD,[48],~25 mg/kg
same,MIC,[49],5 µg/mL
same,MIC,[50],5.2 µg/mL
same,utility in treating tumours,[51],proved to be of utility
same,MIC,[52],1.6 µg/mL
same,LD50,[53]; iv,8.75 mg/kg
same,LD50,[53]; sc,13.7 mg/kg
COc1cccc2c1C(=O)c1c(O)c3c(c(O)c1C2=O)C[C@@](O)(C(C)=O)C[C@@H]3O[C@H]1C[C@H](N)[C@H](O)[C@H](C)O1 [13057 RP daunorubicin hydrochloride],solubility in chloroform,solubility; listed as hydrochloride,slightly soluble
same,solubility in water,solubility; listed as hydrochloride,soluble
